Laboratory results as given in patent publication US8946195B2, “Bicyclic methyl amine derivatives as sphingosine-1 phosphate receptors modulators” (Allergan, Inc., priority 2011, dated 2015).

Molecular target: T1, human S1P1 receptor (Homo sapiens, UniProt P21453)
T1 construct: expressed in transfected cells; membranes used
Experiment: GTP γ35S binding assay for S1P1 activity
Format: biochemical
Conditions: membranes of cells stably expressing the S1P1 receptor, agonist potency
Description: Compounds were synthesized and tested for S1P1 activity using the GTP γ^35S binding assay. These compounds may be assessed for their ability to activate or block activation of the human S1P1 receptor in cells stably expressing the S1P1 receptor.
GTP γ35S binding was measured in the medium containing (mM) HEPES 25, pH 7.4, MgCl2 10, NaCl 100, dithitothreitol dithitothreitol 0.5, digitonin 0.003%, 0.2 nM GTP γ35S, and 5 μg membrane protein in a volume of 150 μl. Test compounds were included in the concentration range from 0.08 to 5,000 nM unless indicated otherwise. Membranes were incubated with 100 μM 5′-adenylylimidodiphosphate adenylylimmidodiphosphate for 30 min, and subsequently with 10 μM GDP for 10 min on ice. Drug solutions and membrane were mixed, and then reactions were initiated by adding GTP γ35S and continued for 30 min at 25° C. Reaction mixtures were filtered over Whatman GF/B filters under vacuum, and washed three times with 3 mL of ice-cold buffer (HEPES 25, pH7.4, MgCl2 10 and NaCl 100). Filters were dried and mixed with scintillant, and counted for 35S activity using a β-counter. Agonist-induced GTP γ35S binding was obtained by subtracting that in the absence of agonist. Binding data were analyzed using a non-linear regression method. In case of antagonist assay, the reaction mixture contained 10 nM […] in the presence of test antagonist at concentrations ranging from 0.08 to 5000 nM.

T1 sequence (P21453 whole entry): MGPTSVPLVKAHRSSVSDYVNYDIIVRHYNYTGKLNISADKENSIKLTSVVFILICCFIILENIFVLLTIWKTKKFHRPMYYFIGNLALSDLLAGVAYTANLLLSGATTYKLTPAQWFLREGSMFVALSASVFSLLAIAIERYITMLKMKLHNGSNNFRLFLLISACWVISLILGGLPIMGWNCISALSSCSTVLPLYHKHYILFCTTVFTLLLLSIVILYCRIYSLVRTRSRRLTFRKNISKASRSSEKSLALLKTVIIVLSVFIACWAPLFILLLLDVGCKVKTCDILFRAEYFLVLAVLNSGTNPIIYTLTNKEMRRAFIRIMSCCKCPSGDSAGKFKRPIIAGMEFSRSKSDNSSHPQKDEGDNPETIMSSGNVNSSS

| EC50 | Structure (SMILES) |
| --- | --- |
| 44.4 nM | CCCCCCc1ccc(-c2ccc(CNCCCP(=O)(O)O)c3ccoc23)cc1 [Compound 3, [3-({[7-(4-hexylphenyl)-1-benzofuran-4-yl]methyl}amino)propyl]phosphonic acid] |
| 170 nM | CCCCCCc1ccc(-c2ccc(CNCCCP(=O)(O)O)c3occc23)cc1 [Compound 2, [3-({[4-(4-hexylphenyl)-1-benzofuran-7-yl]methyl}amino)propyl]phosphonic acid] |
| 37.1 nM | CCCCCCc1ccc(-c2ccc(CNCCCP(=O)(O)O)c3c2CCC3)cc1 [Compound 1, [3-({[7-(4-hexylphenyl)-2,3-dihydro-1H-inden-4-yl]methyl}amino)propyl]phosphonic acid] |
